{"source": "patent US20240166598A1", "about": "“COMPOUNDS, COMPOSITIONS, AND METHODS OF USING THE SAME” (priority 2021, published 2024)", "key": {"SARS CoV-2 PLpro [1]": {"target": "T1, SARS CoV-2 PLpro (Severe acute respiratory syndrome coronavirus 2 (2019-nCoV) (SARS-CoV-2), UniProt P0DTD1)", "experiment": "biochemical", "format": "biochemical", "conditions": "for PLpro inhibition potency, in words (SAR): compared with GRL0617 / parent"}, "SARS CoV-2 PLpro [2]": {"target": "T1, SARS CoV-2 PLpro", "experiment": "biochemical", "format": "binding"}, "SARS CoV-2 PLpro [3]": {"target": "T1, SARS CoV-2 PLpro", "experiment": "biochemical", "conditions": "Table 8; read-out: FRET Enzymatic assay IC50"}, "SARS CoV-2 PLpro [4]": {"target": "T1, SARS CoV-2 PLpro", "experiment": "cell-based", "conditions": "read-out: FlipGFP-PLpro assay EC50"}, "in vitro": {"experiment": "in vitro", "conditions": "human, Caco-2"}, "[5]": {"conditions": "Table 7, read-out: Enzymatic assay IC50"}, "[6]": {"conditions": "read-out: SPR binding assays KD"}, "[7]": {"conditions": "read-out: Enzyme inhibition IC50"}, "[8]": {"conditions": "Table 7, read-out: SPR binding assay KD"}}, "note": "Where two headings read alike, the source gives them in different places."}
{"compound": "Cc1ccc(CNCC(=O)O)cc1C(=O)N[C@H](C)c1cccc2ccccc12", "note": "[ZN-3-56]", "values": [{"measurement": "PLpro inhibition potency, in words (SAR)", "setting": "SARS CoV-2 PLpro [1]", "value": "slight improvement of potency over GRL0617"}]}
{"compound": "C[C@@H](NC(=O)c1cc(NC2CNC2)ccc1Cl)c1csc2ccccc12", "note": "[Example 54, (R)-5-(azetidin-3-ylamino)-N-(1-(benzo[b]thiophen-3-yl)ethyl)-2-chlorobenzamide]", "values": [{"measurement": "Kd", "setting": "SARS CoV-2 PLpro [2]; read-out: SPR binding assay KD", "value": 33, "unit": "µM"}, {"measurement": "IC50", "setting": "SARS CoV-2 PLpro [1]; read-out: Enzymatic assay IC50", "value": 8.5, "unit": "µM"}]}
{"compound": "Cc1ccc(N(C)C2CNC2)cc1C(=O)N[C@H](C)c1c(OC2CNC2)ccc2ccccc12", "note": "[Example 30, (R)-5-(azetidin-3-yl(methyl)amino)-N-(1-(2-(azetidin-3-yloxy)naphthalen-1-yl)ethyl)-2-methylbenzamide]", "values": [{"measurement": "IC50", "setting": "SARS CoV-2 PLpro [1]; [5]", "value": "> 100", "unit": "µM"}]}
{"compound": "Cc1ccc(N)cc1C(=O)NC(C)c1cccc2cc[nH]c12", "note": "(centres unmarked) [Example 18, N-(1-(1H-indol-7-yl)ethyl)-5-amino-2-methylbenzamide]", "values": [{"measurement": "Kd", "setting": "SARS CoV-2 PLpro [2]; read-out: SPR binding assay KD", "value": 30.3, "unit": "µM"}, {"measurement": "IC50", "setting": "SARS CoV-2 PLpro [1]; read-out: Enzymatic assay IC50", "value": 4.7, "unit": "µM"}]}
{"compound": "Cc1ccc(OC2CNC2)cc1C(=O)N[C@H](C)c1cccc(-c2ccc(CN3CCCC3)o2)c1", "values": [{"measurement": "IC50", "setting": "SARS CoV-2 PLpro [3]", "value": "4.58 ± 0.92", "unit": "µM"}, {"measurement": "EC50", "setting": "SARS CoV-2 PLpro [4]", "value": "> 60", "unit": "µM"}]}
{"compound": "Cc1ccc(N)cc1C(=O)NC(CO)c1cccc2ccccc12", "note": "(centres unmarked) [ZN-3-13]", "values": [{"measurement": "Kd", "setting": "SARS CoV-2 PLpro [2]; [6]", "value": 39.1, "unit": "µM"}, {"measurement": "IC50", "setting": "SARS CoV-2 PLpro [1]; Table 11, read-out: Enzyme inhibition IC50", "value": "~100", "unit": "µM"}]}
{"compound": "Cc1ccc(NC(=O)C2CCN(C(=O)OC(C)(C)C)CC2)cc1C(=O)N[C@H](C)c1cccc2ccccc12", "note": "[ZN-2-183]", "values": [{"measurement": "Kd", "setting": "SARS CoV-2 PLpro [2]; [6]", "value": 31.1, "unit": "µM"}, {"measurement": "IC50", "setting": "SARS CoV-2 PLpro [1]; [7]", "value": 6, "unit": "µM"}]}
{"compound": "Cc1ccc(NC2CCN(C(=O)OC(C)(C)C)CC2)cc1C(=O)N[C@H](C)c1cccc2ccccc12", "note": "[Example 2, Tert-butyl (R)-4-((4-methyl-3-((1-(naphthalen-1-yl)ethyl)carbamoyl)phenyl)amino)piperidine-1-carboxylate]", "values": [{"measurement": "Kd", "setting": "SARS CoV-2 PLpro [2]; read-out: SPR binding assay KD", "value": 4.7, "unit": "µM"}, {"measurement": "IC50", "setting": "SARS CoV-2 PLpro [1]; read-out: Enzymatic assay IC50", "value": 1.1, "unit": "µM"}]}
{"compound": "Cc1ccc(N)cc1C(=O)N[C@H](C)c1cccc2cccnc12", "note": "[Example 35, (R)-5-amino-2-methyl-N-(1-(quinolin-8-yl)ethyl)benzamide]", "values": [{"measurement": "Kd", "setting": "SARS CoV-2 PLpro [2]; [8]", "value": "> 1000", "unit": "µM"}]}
{"compound": "Cc1ccc(NC2CNC2)cc1C(=O)N[C@H](C)c1cccc2ccccc12", "note": "[Example 5, (R)-5-(azetidin-3-ylamino)-2-methyl-N-(1-(naphthalen-1-yl)ethyl)benzamide]", "values": [{"measurement": "Kd", "setting": "SARS CoV-2 PLpro [2]; [8]", "value": 0.81, "unit": "µM"}]}
{"compound": "Cc1ccc(NC2CNC2)cc1C(=O)N[C@H](C)c1cccc(-c2ncc(CN3CCCC3)s2)c1", "values": [{"measurement": "IC50", "setting": "SARS CoV-2 PLpro [1]; [5]", "value": 3.14, "unit": "µM"}]}
{"compound": "(R)-6-amino-3-methyl-N- (1-(naphthalen-1- yl)ethyl)picolinamide [Example 40]", "values": [{"measurement": "Kd", "setting": "SARS CoV-2 PLpro [2]; read-out: SPR binding assay KD", "value": "> 1000", "unit": "µM"}, {"measurement": "IC50", "setting": "SARS CoV-2 PLpro [1]; read-out: Enzymatic assay IC50", "value": "10 to 100", "unit": "µM"}]}
{"compound": "Cc1ccc(NC2CN(C(=O)OC(C)(C)C)C2)cc1C(=O)N[C@H](C)c1cccc2ccccc12", "note": "[Example 1, Tert-butyl (R)-3-((4-methyl-3-((1-(naphthalen-1-yl)ethyl)carbamoyl)phenyl)amino)azetidine-1-carboxylate]", "values": [{"measurement": "Kd", "setting": "SARS CoV-2 PLpro [2]; read-out: SPR binding assay KD", "value": 16, "unit": "µM"}, {"measurement": "IC50", "setting": "SARS CoV-2 PLpro [1]; read-out: Enzymatic assay IC50", "value": 6.1, "unit": "µM"}]}
{"compound": "Cc1ccc(NC2CNC2)cc1C(=O)N[C@H](C)c1cccc(-c2ccc(CO)s2)c1", "values": [{"measurement": "IC50", "setting": "SARS CoV-2 PLpro [1]; [5]", "value": 1.57, "unit": "µM"}]}
{"compound": "Cc1ccc([N+](=O)[O-])cc1C(=O)NC(C)c1c[nH]c2ccccc12", "note": "(centres unmarked)", "values": [{"measurement": "IC50", "setting": "SARS CoV-2 PLpro [1]; [5]", "value": "> 100", "unit": "µM"}]}
{"compound": "Cc1ccc(NC2CNC2)cc1C(=O)N[C@H](C)c1cccc2ccccc12", "note": "[ZN-2-184]", "values": [{"measurement": "Kd", "setting": "SARS CoV-2 PLpro [2]; KD2", "value": 1.17, "unit": "µM"}, {"measurement": "Kd", "setting": "SARS CoV-2 PLpro [2]; KD3", "value": 1.06, "unit": "µM"}, {"measurement": "Kd", "setting": "SARS CoV-2 PLpro [2]; KD4", "value": 0.856, "unit": "µM"}, {"measurement": "rate of association relative to GRL0617", "setting": "SARS CoV-2 PLpro [2]; SPR", "value": "twofold increase in rate of association"}, {"measurement": "Ave ka", "setting": "SARS CoV-2 PLpro [2]; SPR association rate, average of replicates", "value": 340000, "unit": "M⁻¹ s⁻¹"}, {"measurement": "ka1", "setting": "SARS CoV-2 PLpro [2]; SPR association rate, replicate 1", "value": 426000, "unit": "M⁻¹ s⁻¹"}, {"measurement": "ka2", "setting": "SARS CoV-2 PLpro [2]; SPR association rate, replicate 2", "value": 348000, "unit": "M⁻¹ s⁻¹"}, {"measurement": "ka3", "setting": "SARS CoV-2 PLpro [2]; SPR association rate, replicate 3", "value": 231000, "unit": "M⁻¹ s⁻¹"}, {"measurement": "ka4", "setting": "SARS CoV-2 PLpro [2]; SPR association rate, replicate 4", "value": 356000, "unit": "M⁻¹ s⁻¹"}, {"measurement": "Ave kd", "setting": "SARS CoV-2 PLpro [2]; SPR dissociation rate, average of replicates", "value": 0.349, "unit": "s⁻¹"}, {"measurement": "kd1", "setting": "SARS CoV-2 PLpro [2]; SPR dissociation rate, replicate 1", "value": 0.438, "unit": "s⁻¹"}, {"measurement": "kd2", "setting": "SARS CoV-2 PLpro [2]; SPR dissociation rate, replicate 2", "value": 0.407, "unit": "s⁻¹"}, {"measurement": "kd3", "setting": "SARS CoV-2 PLpro [2]; SPR dissociation rate, replicate 3", "value": 0.246, "unit": "s⁻¹"}, {"measurement": "kd4", "setting": "SARS CoV-2 PLpro [2]; SPR dissociation rate, replicate 4", "value": 0.305, "unit": "s⁻¹"}, {"measurement": "Kd", "setting": "SARS CoV-2 PLpro [2]; [6]", "value": 1.03, "unit": "µM"}, {"measurement": "PLpro inhibition potency, in words (SAR)", "setting": "SARS CoV-2 PLpro [1]", "value": "two-fold improvement relative to GRL0617"}, {"measurement": "IC50", "setting": "SARS CoV-2 PLpro [1]; [7]", "value": 1.01, "unit": "µM"}]}
{"compound": "Cc1ccc(NC2CNC2)cc1C(=O)N[C@H](C)c1cccc(-c2ccc(CNC(=O)C(F)(F)C(F)(F)F)s2)c1", "values": [{"measurement": "IC50", "setting": "SARS CoV-2 PLpro [1]; [5]", "value": 0.442, "unit": "µM"}]}
{"compound": "CCOC(=O)[C@@H]1CC[C@H](NCc2cnc(-c3cccc([C@@H](C)NC(=O)c4cc(NC5CNC5)ccc4C)c3)s2)C1", "values": [{"measurement": "IC50", "setting": "SARS CoV-2 PLpro [1]; [5]", "value": 0.496, "unit": "µM"}]}
{"compound": "C[C@H]1O[C@@H](O[C@H]2[C@@H](O)C[C@H](O[C@H]3[C@@H](O)C[C@H](O[C@H]4CC[C@@]5(C)[C@H](CC[C@@H]6[C@@H]5C[C@@H](O)[C@]5(C)[C@@H](C7=CC(=O)OC7)CC[C@]65O)C4)O[C@@H]3C)O[C@@H]2C)C[C@H](O)[C@@H]1O", "note": "[Digoxin]", "values": [{"measurement": "Papp A→B", "setting": "in vitro", "value": 0.4, "unit": "×10⁻⁶ cm/s"}, {"measurement": "Papp B→A", "setting": "in vitro", "value": 10.4, "unit": "×10⁻⁶ cm/s"}]}
